Test systems include RPMI-8226 leukemia; TK-10 renal; NCI-H226 lung; OVCAR-4 ovarian; OVCAR-3 ovarian; HCT-15 colon; ACHN renal; A498 renal; NCI-H522 lung; OVCAR-5 ovarian.
Common to all, as to assay: NCI anticancer screen, dose series, 48 h

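1) Cells in 96-well plates. 2) Compound, 48 h, 5 concentrations. 3) Linear interpolation between surrounding doses. 4) Unreached endpoint = highest concentration. GI50 marks 50% less growth. At the TGI there is no net growth.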

`CCCOc1ccc(/C(Cl)=C(\C=O)c2ccc(OC)c(OC)c2)cc1OCCC`: the TGI in the test with RPMI-8226 leukemia was above 100 µM; in the test with TK-10 renal it was 94.3 µM; in the test on NCI-H226 lung, 32.4 µM; in the test with OVCAR-4 ovarian it was above 100 µM; in the test on OVCAR-3 ovarian, above 100 µM; in the test with HCT-15 colon, 32.8 µM. In addition, the TGI with ACHN renal is above 100 µM; with A498 renal, 38.5 µM; in the test with NCI-H522 lung, 6.12 µM; with OVCAR-5 ovarian, above 100 µM.

As for `COc1cc(/C=C/C(=O)C(=Cc2ccc(F)c(F)c2)C(=O)/C=C/c2ccc(O)c(OC)c2)ccc1O`, the GI50 in the test with RPMI-8226 leukemia was 2.44 µM; with TK-10 renal, 2.67 µM; in the test with NCI-H226 lung, 3.39 µM; in the test with OVCAR-4 ovarian, 2.96 µM; with OVCAR-3 ovarian it was 1.91 µM; in the test on HCT-15 colon, 2.82 µM. The GI50 with ACHN renal is 3.27 µM; in the test on A498 renal, 2 µM; with NCI-H522 lung it was 1.45 µM; in the test on OVCAR-5 ovarian, 3.25 µM. Besides, the TGI with RPMI-8226 leukemia was 8.29 µM; in the test on TK-10 renal it was 8.37 µM; with NCI-H226 lung, 12.1 µM; in the test with OVCAR-4 ovarian, 10.7 µM; with OVCAR-3 ovarian, 4.78 µM; in the test on HCT-15 colon, 10.1 µM. Besides, the TGI in the test on ACHN renal was 19.9 µM; in the test on A498 renal, 6.95 µM; with NCI-H522 lung it was 3.12 µM; in the test on OVCAR-5 ovarian, 14.3 µM.

Regarding `O=C(CCc1nnc2s/c(=C\c3ccccc3)c(=O)n12)Nc1cc(Cl)ccc1Cl`, the TGI in the test on RPMI-8226 leukemia, in the test on TK-10 renal, in the test on NCI-H226 lung, in the test with OVCAR-4 ovarian, with OVCAR-3 ovarian and with HCT-15 colon was above 100 µM in each case. In addition, the TGI in the test on ACHN renal, in the test with A498 renal, in the test on NCI-H522 lung and in the test with OVCAR-5 ovarian was above 100 µM in each case.

On to `C=CCN1C(=O)/C(=c2\sc3n(c2=O)C2C(NN=3)N(CC)C(=O)N2CC)c2ccccc21` (stereo not drawn), for which the GI50 is 0.657 µM in the test with RPMI-8226 leukemia; 1.85 µM in the test on TK-10 renal; 2.19 µM with NCI-H226 lung; 1.03 µM with OVCAR-4 ovarian; 0.377 µM with OVCAR-3 ovarian; 0.451 µM in the test on HCT-15 colon. The GI50 in the test on ACHN renal is 0.834 µM; with A498 renal, 0.246 µM; with NCI-H522 lung it was 0.379 µM; in the test with OVCAR-5 ovarian, 1.55 µM. Further, the TGI with RPMI-8226 leukemia was above 100 µM; in the test with TK-10 renal, above 20.5 µM; with NCI-H226 lung it was above 100 µM; in the test on OVCAR-4 ovarian, above 100 µM; in the test on OVCAR-3 ovarian it was 2.35 µM; with HCT-15 colon it was above 100 µM. Besides, the TGI in the test with ACHN renal was above 100 µM; with A498 renal, 1.17 µM; in the test with OVCAR-5 ovarian it was above 100 µM.

Turning to `COC(=O)CCC(NC(=S)N/N=C(\C)c1ccccn1)C(=O)OC` (stereo not drawn), the TGI in the test on RPMI-8226 leukemia, in the test with TK-10 renal, with NCI-H226 lung, with OVCAR-4 ovarian, in the test with OVCAR-3 ovarian and with HCT-15 colon was above 100 µM in each case. Further, the TGI in the test on ACHN renal, with A498 renal, in the test with NCI-H522 lung and in the test on OVCAR-5 ovarian was above 100 µM each time.

On to `Cc1ccc(/C=C(\C#N)n2nnc3cc(Cl)c(Cl)cc32)cc1`, for which the GI50 was 1.7 µM in the test on RPMI-8226 leukemia; 4.4 µM in the test with TK-10 renal; 2.88 µM in the test with NCI-H226 lung; 2.69 µM in the test with OVCAR-4 ovarian; 2.93 µM in the test on OVCAR-3 ovarian; 1.73 µM with HCT-15 colon. In addition, the GI50 in the test with ACHN renal was 1.8 µM; in the test with A498 renal, 1.91 µM; in the test with NCI-H522 lung, 2.72 µM; in the test on OVCAR-5 ovarian it was 3.25 µM. For the same compound, the TGI with RPMI-8226 leukemia was 4.91 µM; in the test on TK-10 renal, 36.4 µM; with NCI-H226 lung it was above 100 µM; in the test on OVCAR-4 ovarian, 81.5 µM; in the test on OVCAR-3 ovarian, 12.8 µM; in the test on HCT-15 colon it was 5.99 µM. Also, the TGI in the test with ACHN renal was 3.63 µM; in the test on A498 renal it was 4.59 µM; in the test with NCI-H522 lung it was 14.9 µM; with OVCAR-5 ovarian, 9.43 µM.

Turning to `COc1cccc(Nc2nc(NNC(=O)Cc3ccccc3)nc(NNC(=O)c3ccncc3)n2)c1`, the GI50 in the test on RPMI-8226 leukemia, in the test with TK-10 renal, in the test on OVCAR-4 ovarian and in the test with HCT-15 colon was above 100 µM throughout. For the same compound, the TGI with RPMI-8226 leukemia, with TK-10 renal, in the test on NCI-H226 lung, with OVCAR-4 ovarian, in the test with OVCAR-3 ovarian and in the test with HCT-15 colon was above 100 µM throughout. The TGI in the test on ACHN renal, with A498 renal, with NCI-H522 lung and with OVCAR-5 ovarian was above 100 µM in each case.

Take `CC(C)=CC/C=C(/C)[C@H]1CC[C@]2(C)[C@@H]1CC[C@@H]1[C@@]3(C)CCC(=O)NC(C)(C)[C@@H]3CC[C@]12C`: the GI50 with RPMI-8226 leukemia is 11.8 µM; with TK-10 renal, 47.5 µM; in the test on NCI-H226 lung, 19.1 µM; with OVCAR-4 ovarian it was 21.9 µM; in the test with OVCAR-3 ovarian, 18.3 µM; with HCT-15 colon, 15.4 µM. The GI50 was 20 µM with ACHN renal, 23.6 µM in the test on A498 renal, 18.4 µM with NCI-H522 lung and 19.3 µM in the test with OVCAR-5 ovarian. Moreover, the TGI is 34.6 µM in the test on RPMI-8226 leukemia; above 100 µM in the test with TK-10 renal; 43.1 µM in the test with NCI-H226 lung; 75 µM in the test on OVCAR-4 ovarian; 34.1 µM in the test with OVCAR-3 ovarian; 32.1 µM in the test with HCT-15 colon. Further, the TGI came to 43 µM with ACHN renal, 67.5 µM with A498 renal, 40.2 µM in the test with NCI-H522 lung and 39.5 µM with OVCAR-5 ovarian.

Regarding `NC(=O)c1ccccc1NC(=O)C(=O)C(C(=O)c1ccc2ccccc2c1)C1OC(=O)c2ccccc21` (stereo not drawn), the TGI came out at 48.1 µM in the test on RPMI-8226 leukemia; 48.9 µM with TK-10 renal; 9.88 µM with NCI-H226 lung; 32.9 µM in the test with OVCAR-4 ovarian; 39.6 µM with OVCAR-3 ovarian; 41.5 µM in the test on HCT-15 colon. For the same compound, the TGI with ACHN renal was above 100 µM; in the test on A498 renal, above 100 µM; with NCI-H522 lung, 43.2 µM; with OVCAR-5 ovarian, 67.1 µM.
